These results are taken from patent US7294687B2, “Parenteral formulations of a peptide for the treatment of systemic lupus erythematosus” (TEVA Pharmaceutical Industries, Ltd., priority 2003, dated 2007).

The subject of this test is SLE-prone (NZBxNZW)F1 female mouse. The test can be described thus: Anti-dsDNA antibodies in SLE-prone mice. In kind it is in vivo, (NZBxNZW)F1 mice. Particulars: 25 or 50 μg/mouse in Captisol®; after 10 treatment injections; vs Captisol® alone. As to the method:
The same batch of drug substance was used in this study and in the first Phase I clinical trial with Compound 1. The mice were followed for anti-dsDNA antibodies and for proteinuria. When the mice were sacrificed, the intensity of ICD was determined in kidneys.

For the substance H-GYYWSWIRQPPGKGEEWIG-OH [Compound 1], the “levels of dsDNA-specific antibodies” value was “no significant differences between groups”.
